Reference: ChEMBL document CHEMBL3885861, “Open TG-GATES”

Organism: Rattus norvegicus
Experiment: Open TG-GATES - Regimen: Daily Repeat
Type: toxicity, organism-based, Sprague-Dawley
Design: regimen Daily Repeat, gender Male, age 6 weeks
Settings: in vivo, po, route gavage; for APTT / Bas / Eos / Fbg / Ht / Lym / MCHC / MCV / Mono / PT / Plat / RBC / Ret / WBC: tissue Blood; for KIDNEY_L / KIDNEY_R / KIDNEY_TOTAL: tissue Kidney; for LIVER: tissue Liver; for ALP / ALT / AST / BUN / CRE / Ca / Cl / DBIL / IP / LDH / Na / PL / RALB / TBIL / TC / TG / TP / gamma-GTP: tissue Plasma
[1] = 0 mg/kg, 72 h, dose level Control, time 3 day
[2] = 0 mg/kg, […], dose level Control, time 7 day
[3] = 0 mg/kg, […], dose level Control, time 14 day
[4] = 0 mg/kg, […], dose level Control, time 28 day
[5] = 40 mg/kg, 72 h, dose level Low, time 3 day
[6] = 40 mg/kg, […], dose level Low, time 7 day
[7] = 40 mg/kg, […], dose level Low, time 14 day
[8] = 40 mg/kg, […], dose level Low, time 28 day

CC(C)N(CCC(C(N)=O)(c1ccccc1)c1ccccn1)C(C)C (stereo not given) [DISOPYRAMIDE]
TERMINAL_BW [1]: 230.2 g | APTT [1]: 22 s | Bas [1]: 0% | Eos [1]: 1.2% | Fbg [1]: 325.2 mg/dL | Ht [1]: 39.9% | Lym [1]: 76.8% | MCHC [1]: 32% | MCV [1]: 64.5 fL | Mono [1]: 2.8% | PT [1]: 15.8 s | Plat [1]: 130.4 x10_4/uL | RBC [1]: 617.8 x10_4/ul | Ret [1]: 7.1% | WBC [1]: 99.7 x10_2/uL | KIDNEY_L [1]: 1 g | KIDNEY_R [1]: 1 g | KIDNEY_TOTAL [1]: 2 g | LIVER [1]: 11 g | ALP [1]: 1742 IU/L | ALT [1]: 49.6 IU/L | AST [1]: 80.8 IU/L | BUN [1]: 17.6 mg/dL | CRE [1]: 0.2 mg/dL | Ca [1]: 10.6 mg/dL | Cl [1]: 107.2 meq/L | DBIL [1]: 0 mg/dL | IP [1]: 7.5 mg/dL | LDH [1]: 201.8 IU/L | Na [1]: 143 meq/L | PL [1]: 140.4 mg/dL | RALB [1]: 2.9 g/dL | TBIL [1]: 0 mg/dL | TC [1]: 71.6 mg/dL | TG [1]: 88 mg/dL | TP [1]: 5.5 g/dL | gamma-GTP [1]: 2 IU/L | TERMINAL_BW [2]: 265.2 g | TERMINAL_BW [3]: 303.7 g | TERMINAL_BW [4]: 406.5 g | APTT [2]: 21.6 s | Bas [2]: 0% | Eos [2]: 0.8% | Fbg [2]: 324 mg/dL | Ht [2]: 39.9% | Lym [2]: 78% | MCHC [2]: 32.1% | MCV [2]: 62.4 fL | Mono [2]: 2% | PT [2]: 16.2 s | Plat [2]: 116.2 x10_4/uL | RBC [2]: 639.4 x10_4/ul | Ret [2]: 6.7% | WBC [2]: 90.3 x10_2/uL | APTT [3]: 25.1 s | Bas [3]: 0% | Eos [3]: 1% | Fbg [3]: 319.4 mg/dL | Ht [3]: 41.9% | Lym [3]: 80.8% | MCHC [3]: 33% | MCV [3]: 58.7 fL | Mono [3]: 2% | PT [3]: 15.7 s | Plat [3]: 113.2 x10_4/uL | RBC [3]: 715 x10_4/ul | Ret [3]: 4.4% | WBC [3]: 124.4 x10_2/uL | APTT [4]: 24.9 s | Bas [4]: 0% | Eos [4]: 1% | Fbg [4]: 317 mg/dL | Ht [4]: 42.9% | Lym [4]: 80% | MCHC [4]: 33.5% | MCV [4]: 56.9 fL | Mono [4]: 2.2% | PT [4]: 15.7 s | Plat [4]: 100.4 x10_4/uL | RBC [4]: 755.2 x10_4/ul | Ret [4]: 3.4% | WBC [4]: 136.1 x10_2/uL | KIDNEY_L [2]: 1.1 g | KIDNEY_R [2]: 1.1 g | KIDNEY_TOTAL [2]: 2.3 g | KIDNEY_L [3]: 1.2 g | KIDNEY_R [3]: 1.3 g | KIDNEY_TOTAL [3]: 2.5 g | KIDNEY_L [4]: 1.6 g | KIDNEY_R [4]: 1.6 g | KIDNEY_TOTAL [4]: 3.1 g | LIVER [2]: 13.2 g | LIVER [3]: 13.6 g | LIVER [4]: 17.8 g | ALP [2]: 1665 IU/L | ALT [2]: 44 IU/L | AST [2]: 70.8 IU/L | BUN [2]: 19 mg/dL | CRE [2]: 0.2 mg/dL | Ca [2]: 10.6 mg/dL | Cl [2]: 106.6 meq/L | DBIL [2]: 0 mg/dL | IP [2]: 7.8 mg/dL | LDH [2]: 199.2 IU/L | Na [2]: 143.2 meq/L | PL [2]: 158.6 mg/dL | RALB [2]: 3 g/dL | TBIL [2]: 0 mg/dL | TC [2]: 81.4 mg/dL | TG [2]: 133.6 mg/dL | TP [2]: 5.6 g/dL | gamma-GTP [2]: 2 IU/L | ALT [3]: 41.8 IU/L | AST [3]: 68 IU/L | BUN [3]: 18.6 mg/dL | CRE [3]: 0.1 mg/dL | Ca [3]: 10.3 mg/dL | Cl [3]: 104.8 meq/L | DBIL [3]: 0 mg/dL | IP [3]: 7 mg/dL | LDH [3]: 142.2 IU/L | Na [3]: 142.2 meq/L | PL [3]: 146.4 mg/dL | RALB [3]: 3 g/dL | TBIL [3]: 0.004 mg/dL | TC [3]: 71.2 mg/dL | TG [3]: 138.2 mg/dL | TP [3]: 5.7 g/dL | gamma-GTP [3]: 2.2 IU/L | ALP [4]: 1292.8 IU/L | ALT [4]: 36.8 IU/L | AST [4]: 62.8 IU/L | BUN [4]: 17.4 mg/dL | CRE [4]: 0.2 mg/dL | Ca [4]: 10.4 mg/dL | Cl [4]: 105 meq/L | DBIL [4]: 0 mg/dL | IP [4]: 6.8 mg/dL | LDH [4]: 199.4 IU/L | Na [4]: 140.6 meq/L | PL [4]: 145.4 mg/dL | RALB [4]: 3.1 g/dL | TBIL [4]: 0.006 mg/dL | TC [4]: 70.6 mg/dL | TG [4]: 181.6 mg/dL | TP [4]: 6.1 g/dL | gamma-GTP [4]: 2.2 IU/L | TERMINAL_BW [5]: 231.5 g | APTT [5]: 20.9 s | Bas [5]: 0% | Eos [5]: 1.2% | Fbg [5]: 313.2 mg/dL | Ht [5]: 39.2% | Lym [5]: 81.8% | MCHC [5]: 32.1% | MCV [5]: 63.9 fL | Mono [5]: 2.2% | PT [5]: 16 s | Plat [5]: 113.5 x10_4/uL | RBC [5]: 614.4 x10_4/ul | Ret [5]: 6.2% | WBC [5]: 87.7 x10_2/uL | KIDNEY_L [5]: 1.1 g | KIDNEY_R [5]: 1.1 g | KIDNEY_TOTAL [5]: 2.1 g | LIVER [5]: 10.8 g | ALP [5]: 1494 IU/L | ALT [5]: 45.4 IU/L | AST [5]: 75.4 IU/L | BUN [5]: 15.4 mg/dL | CRE [5]: 0.2 mg/dL | Ca [5]: 10.8 mg/dL | Cl [5]: 107.8 meq/L | DBIL [5]: 0 mg/dL | IP [5]: 7.6 mg/dL | LDH [5]: 188.2 IU/L | PL [5]: 146.8 mg/dL | RALB [5]: 3 g/dL | TBIL [5]: 0 mg/dL | TC [5]: 73.4 mg/dL | TG [5]: 122.4 mg/dL | TP [5]: 5.4 g/dL | gamma-GTP [5]: 1.8 IU/L | TERMINAL_BW [6]: 254.3 g | TERMINAL_BW [7]: 308.2 g | TERMINAL_BW [8]: 375 g | APTT [6]: 20.5 s | Bas [6]: 0% | Eos [6]: 0.8% | Fbg [6]: 323.8 mg/dL | Ht [6]: 40% | Lym [6]: 83% | MCHC [6]: 32.7% | MCV [6]: 61.2 fL | Mono [6]: 1.8% | PT [6]: 15.9 s | Plat [6]: 122.2 x10_4/uL | RBC [6]: 654 x10_4/ul | Ret [6]: 6.2% | WBC [6]: 120.7 x10_2/uL | APTT [7]: 23.9 s | Bas [7]: 0% | Eos [7]: 1% | Fbg [7]: 310.6 mg/dL | Ht [7]: 41.1% | Lym [7]: 80.6% | MCHC [7]: 32.8% | MCV [7]: 59.7 fL | Mono [7]: 2.2% | PT [7]: 15.3 s | Plat [7]: 109 x10_4/uL | RBC [7]: 688.2 x10_4/ul | Ret [7]: 4.9% | WBC [7]: 113.4 x10_2/uL | APTT [8]: 25.5 s | Bas [8]: 0% | Eos [8]: 1.2% | Fbg [8]: 320.2 mg/dL | Ht [8]: 43.3% | Lym [8]: 81% | MCHC [8]: 33.8% | MCV [8]: 55.7 fL | Mono [8]: 2.2% | PT [8]: 15.4 s | Plat [8]: 110.5 x10_4/uL | RBC [8]: 776.4 x10_4/ul | Ret [8]: 2.6% | WBC [8]: 121.1 x10_2/uL | KIDNEY_L [6]: 1 g | KIDNEY_R [6]: 1.1 g | KIDNEY_TOTAL [6]: 2.1 g | KIDNEY_L [7]: 1.3 g | KIDNEY_R [7]: 1.3 g | KIDNEY_TOTAL [7]: 2.6 g | KIDNEY_L [8]: 1.4 g | KIDNEY_R [8]: 1.4 g | KIDNEY_TOTAL [8]: 2.7 g | LIVER [6]: 11.6 g | LIVER [7]: 14.7 g | LIVER [8]: 16 g | ALP [6]: 1528.8 IU/L | ALT [6]: 48.2 IU/L | AST [6]: 72.2 IU/L | BUN [6]: 16.4 mg/dL | CRE [6]: 0.1 mg/dL | Ca [6]: 10.4 mg/dL | Cl [6]: 106.8 meq/L | DBIL [6]: 0.002 mg/dL | IP [6]: 7.7 mg/dL | LDH [6]: 149.8 IU/L | Na [6]: 143.2 meq/L | PL [6]: 141.6 mg/dL | RALB [6]: 2.9 g/dL | TBIL [6]: 0 mg/dL | TC [6]: 73.4 mg/dL | TG [6]: 115.6 mg/dL | TP [6]: 5.4 g/dL | gamma-GTP [6]: 1.8 IU/L | ALP [7]: 1255.8 IU/L | ALT [7]: 47.8 IU/L | AST [7]: 75 IU/L | BUN [7]: 16.8 mg/dL | CRE [7]: 0.2 mg/dL | Ca [7]: 10.4 mg/dL | Cl [7]: 104.8 meq/L | DBIL [7]: 0 mg/dL | IP [7]: 7.6 mg/dL | LDH [7]: 225 IU/L | Na [7]: 141.6 meq/L | PL [7]: 147 mg/dL | RALB [7]: 3.1 g/dL | TBIL [7]: 0.01 mg/dL | TC [7]: 73.6 mg/dL | TG [7]: 131 mg/dL | TP [7]: 5.7 g/dL | gamma-GTP [7]: 2.2 IU/L | ALP [8]: 1094 IU/L | ALT [8]: 40 IU/L | AST [8]: 64.6 IU/L | BUN [8]: 17.4 mg/dL | CRE [8]: 0.2 mg/dL | Ca [8]: 10.5 mg/dL | Cl [8]: 106.4 meq/L | DBIL [8]: 0 mg/dL | IP [8]: 6.3 mg/dL | LDH [8]: 158.6 IU/L | Na [8]: 140.6 meq/L | PL [8]: 158 mg/dL | RALB [8]: 3.1 g/dL | TBIL [8]: 0.004 mg/dL | TC [8]: 70 mg/dL | TG [8]: 205 mg/dL | TP [8]: 6.1 g/dL | gamma-GTP [8]: 2.2 IU/L | TERMINAL_BW (120 mg/kg, 72 h, dose level Middle, time 3 day): 227.1 g
